From ChEMBL document CHEMBL3045090, “Synthesis, insecticidal activity, and structure-activity relationship of trifluoromethyl-containing phthalic acid diamide structures” (2010)
In brackets after ≈: the same amount, converted by molar mass.

How the values were obtained:
Assay type in all cases: functional
[1] = system: Plutella xylostella; assay: Insecticidal activity against third-instar larval stage of Plutella xylostella (diamondback moth) in cabbage leaves assessed as mortality at 0.5 ug/ml treated for 10 secs before larva infestation measured for 3 days by dipping method; settings: 72 h
[2] = system: Plutella xylostella; assay: Insecticidal activity against third-instar larval stage of Plutella xylostella (diamondback moth) in cabbage leaves assessed as mortality at 0.1 ug/ml treated for 10 secs before larva infestation measured for 3 days by dipping method; settings: 72 h
[3] = system: Plutella xylostella; assay: Insecticidal activity against third-instar larval stage of Plutella xylostella (diamondback moth) in cabbage leaves assessed as mortality at 5 ug/ml treated for 10 secs before larva infestation measured for 3 days by dipping method; settings: 72 h
[4] = system: Plutella xylostella; assay: Insecticidal activity against third-instar larval stage of Plutella xylostella (diamondback moth) in cabbage leaves assessed as mortality at 100 ug/ml treated for 10 secs before larva infestation measured after 2 days by dipping method; settings: 48 h
[5] = system: Plutella xylostella; assay: Insecticidal activity against third-instar larval stage of Plutella xylostella (diamondback moth) in cabbage leaves assessed as mortality at 10 ug/ml treated for 10 secs before larva infestation measured after 2 days by dipping method; settings: 48 h
[6] = system: Plutella xylostella; assay: Insecticidal activity against third-instar larval stage of Plutella xylostella (diamondback moth) in cabbage leaves assessed as mortality at 1 ug/ml treated for 10 secs before larva infestation measured for 3 days by dipping method; settings: 72 h
[7] = system: Plutella xylostella; assay: Insecticidal activity against third-instar larval stage of Plutella xylostella (diamondback moth) in cabbage leaves assessed as mortality at 10 ug/ml treated for 10 secs before larva infestation measured after 3 days by dipping method; settings: 72 h
[8] = system: Plutella xylostella; assay: Insecticidal activity against third-instar larval stage of Plutella xylostella (diamondback moth) in cabbage leaves assessed as mortality at 100 ug/ml treated for 10 secs before larva infestation measured after 3 days by dipping method; settings: 72 h
[9] = system: Plutella xylostella; assay: Insecticidal activity against third-instar larval stage of Plutella xylostella (diamondback moth) in cabbage leaves assessed as mortality treated for 10 secs before larva infestation measured for 3 days by dipping method; settings: 72 h

CC(C)(CS(C)(=O)=O)NC(=O)c1c(I)cccc1C(=O)Nc1ccc(F)c(C(F)(F)F)c1
mortality at 0.5 µg/mL [1]: 5%
mortality at 0.1 µg/mL [2]: 0%
mortality at 5 µg/mL [3]: 100%
mortality at 100 µg/mL [4]: 100%
mortality at 10 µg/mL [5]: 100%
mortality at 1 µg/mL [6]: 29%

CSCC(C)(C)NC(=O)c1c(I)cccc1C(=O)Nc1ccc(F)c(C(F)(F)F)c1
mortality at 0.5 µg/mL [1]: 0%
mortality at 0.1 µg/mL [2]: 0%
mortality at 5 µg/mL [3]: 100%
mortality at 100 µg/mL [4]: 100%
mortality at 10 µg/mL [5]: 100%
mortality at 1 µg/mL [6]: 33%

CC(C)(CS(C)(=O)=O)NC(=O)c1c(I)cccc1C(=O)Nc1cc(F)cc(C(F)(F)F)c1
mortality at 10 µg/mL [7]: 91%
mortality at 100 µg/mL [4]: 100%
mortality at 10 µg/mL [5]: 57%

COc1ccc(NC(=O)c2cccc(I)c2C(=O)NC(C)(C)C)cc1C(F)(F)F
mortality at 100 µg/mL [4]: 0%
mortality at 100 µg/mL [8]: 5%

COCC(C)(C)NC(=O)c1c(I)cccc1C(=O)Nc1cc(F)cc(C(F)(F)F)c1
mortality at 100 µg/mL [4]: 10%
mortality at 100 µg/mL [8]: 19%

COc1ccc(C(F)(F)F)cc1NC(=O)c1cccc(I)c1C(=O)NC(C)(C)CS(C)(=O)=O
mortality at 100 µg/mL [4]: 0%
mortality at 100 µg/mL [8]: 0%

COc1cc(NC(=O)c2cccc(I)c2C(=O)NC(C)(C)C)cc(C(F)(F)F)c1
mortality at 100 µg/mL [4]: 10%
mortality at 100 µg/mL [8]: 10%

COc1cc(NC(=O)c2cccc(I)c2C(=O)NC(C)(C)CSC)cc(C(F)(F)F)c1
mortality at 100 µg/mL [4]: 0%
mortality at 100 µg/mL [8]: 5%

COCC(C)(C)NC(=O)c1c(I)cccc1C(=O)Nc1ccc(OC)c(C(F)(F)F)c1
mortality at 100 µg/mL [4]: 0%
mortality at 100 µg/mL [8]: 0%

COCC(C)(C)NC(=O)c1c(I)cccc1C(=O)Nc1cccc(C(F)(F)F)c1
mortality at 10 µg/mL [7]: 13%
mortality at 100 µg/mL [4]: 60%
mortality at 10 µg/mL [5]: 0%
mortality at 100 µg/mL [8]: 100%

COCC(C)(C)NC(=O)c1c(I)cccc1C(=O)Nc1cc(C(F)(F)F)cc(C(F)(F)F)c1
mortality at 100 µg/mL [4]: 0%
mortality at 100 µg/mL [8]: 0%

CC(C)(CS(C)(=O)=O)NC(=O)c1c(I)cccc1C(=O)Nc1cccc(C(F)(F)F)c1
mortality at 10 µg/mL [7]: 100%
mortality at 100 µg/mL [4]: 100%
mortality at 10 µg/mL [5]: 95%

COc1ccc(C(F)(F)F)cc1NC(=O)c1cccc(I)c1C(=O)NC(C)(C)CSC
mortality at 100 µg/mL [4]: 5%
mortality at 100 µg/mL [8]: 5%

CC(C)(C)NC(=O)c1c(I)cccc1C(=O)Nc1cc(F)cc(C(F)(F)F)c1
mortality at 100 µg/mL [4]: 14%
mortality at 100 µg/mL [8]: 76%

COCC(C)(C)NC(=O)c1c(I)cccc1C(=O)Nc1ccc(C#N)c(C(F)(F)F)c1
mortality at 100 µg/mL [4]: 0%
mortality at 100 µg/mL [8]: 0%

CSCC(C)(C)NC(=O)c1c(I)cccc1C(=O)Nc1cc(C(F)(F)F)ccc1F
mortality at 100 µg/mL [4]: 41%
mortality at 100 µg/mL [8]: 65%

CSCC(C)(C)NC(=O)c1c(I)cccc1C(=O)Nc1cccc(C(F)(F)F)c1
mortality at 10 µg/mL [7]: 100%
mortality at 100 µg/mL [4]: 100%
mortality at 10 µg/mL [5]: 90%

CC(C)(CS(C)(=O)=O)NC(=O)c1c(I)cccc1C(=O)Nc1cc(C(F)(F)F)cc(C(F)(F)F)c1
mortality at 100 µg/mL [4]: 40%
mortality at 100 µg/mL [8]: 90%

CSCC(C)(C)NC(=O)c1c(I)cccc1C(=O)Nc1ccc(Cl)c(C(F)(F)F)c1
mortality at 0.5 µg/mL [1]: 57%
mortality at 0.1 µg/mL [2]: 0%
mortality at 5 µg/mL [3]: 100%
mortality at 100 µg/mL [4]: 100%
mortality at 10 µg/mL [5]: 100%
mortality at 1 µg/mL [6]: 62%
LC50 [9]: 0.42 µg/mL (≈ 0.736 µM)

CC(C)(CS(C)(=O)=O)NC(=O)c1c(I)cccc1C(=O)Nc1cc(C(F)(F)F)ccc1F
mortality at 100 µg/mL [4]: 43%
mortality at 100 µg/mL [8]: 67%

Cc1cc(C(F)(C(F)(F)F)C(F)(F)F)ccc1NC(=O)c1cccc(I)c1C(=O)NC(C)(C)CS(C)(=O)=O [FLUBENDIAMIDE]
mortality at 0.5 µg/mL [1]: 90%
mortality at 0.1 µg/mL [2]: 20%
mortality at 10 µg/mL [7]: 100%
mortality at 5 µg/mL [3]: 100%
mortality at 100 µg/mL [4]: 100%
mortality at 10 µg/mL [5]: 67%
mortality at 1 µg/mL [6]: 95%
LC50 [9]: 0.15 µg/mL (≈ 0.22 µM)

CC(C)(C)NC(=O)c1c(I)cccc1C(=O)Nc1cc(C(F)(F)F)ccc1F
mortality at 100 µg/mL [4]: 57%
mortality at 100 µg/mL [8]: 62%

CC(C)(C)NC(=O)c1c(I)cccc1C(=O)Nc1cccc(C(F)(F)F)c1
mortality at 10 µg/mL [7]: 100%
mortality at 100 µg/mL [4]: 100%
mortality at 10 µg/mL [5]: 50%

CSCC(C)(C)NC(=O)c1c(I)cccc1C(=O)Nc1cc(F)cc(C(F)(F)F)c1
mortality at 10 µg/mL [7]: 100%
mortality at 100 µg/mL [4]: 90%
mortality at 10 µg/mL [5]: 43%
mortality at 100 µg/mL [8]: 100%

CC(C)(CS(C)(=O)=O)NC(=O)c1c(I)cccc1C(=O)Nc1ccc(Cl)c(C(F)(F)F)c1
mortality at 0.5 µg/mL [1]: 29%
mortality at 0.1 µg/mL [2]: 4.8%
mortality at 5 µg/mL [3]: 100%
mortality at 100 µg/mL [4]: 100%
mortality at 10 µg/mL [5]: 100%
mortality at 1 µg/mL [6]: 52%
LC50 [9]: 0.98 µg/mL (≈ 1.63 µM)

COCC(C)(C)NC(=O)c1c(I)cccc1C(=O)Nc1cc(C(F)(F)F)ccc1F
mortality at 100 µg/mL [4]: 6%
mortality at 100 µg/mL [8]: 12%

COCC(C)(C)NC(=O)c1c(I)cccc1C(=O)Nc1ccc(Cl)c(C(F)(F)F)c1
mortality at 100 µg/mL [4]: 5%
mortality at 100 µg/mL [8]: 52%

CC(C)(CS(C)(=O)=O)NC(=O)c1c(I)cccc1C(=O)Nc1ccc(C#N)c(C(F)(F)F)c1
mortality at 10 µg/mL [7]: 50%
mortality at 100 µg/mL [4]: 57%
mortality at 10 µg/mL [5]: 0%
mortality at 100 µg/mL [8]: 100%

CSCC(C)(C)NC(=O)c1c(I)cccc1C(=O)Nc1cc(C(F)(F)F)cc(C(F)(F)F)c1
mortality at 100 µg/mL [4]: 71%
mortality at 100 µg/mL [8]: 85%

COc1ccc(C(F)(F)F)cc1NC(=O)c1cccc(I)c1C(=O)NC(C)(C)C
mortality at 100 µg/mL [4]: 0%
mortality at 100 µg/mL [8]: 0%

COCC(C)(C)NC(=O)c1c(I)cccc1C(=O)Nc1cc(C(F)(F)F)ccc1OC
mortality at 100 µg/mL [4]: 0%
mortality at 100 µg/mL [8]: 0%

COc1cc(NC(=O)c2cccc(I)c2C(=O)NC(C)(C)CS(C)(=O)=O)cc(C(F)(F)F)c1
mortality at 100 µg/mL [4]: 0%
mortality at 100 µg/mL [8]: 0%

COc1ccc(NC(=O)c2cccc(I)c2C(=O)NC(C)(C)CS(C)(=O)=O)cc1C(F)(F)F
mortality at 100 µg/mL [4]: 0%
mortality at 100 µg/mL [8]: 0%

COc1ccc(NC(=O)c2cccc(I)c2C(=O)NC(C)(C)CSC)cc1C(F)(F)F
mortality at 100 µg/mL [4]: 5%
mortality at 100 µg/mL [8]: 50%

CSCC(C)(C)NC(=O)c1c(I)cccc1C(=O)Nc1ccc(C#N)c(C(F)(F)F)c1
mortality at 10 µg/mL [7]: 42%
mortality at 100 µg/mL [4]: 100%
mortality at 10 µg/mL [5]: 6%

CC(C)(C)NC(=O)c1c(I)cccc1C(=O)Nc1ccc(Cl)c(C(F)(F)F)c1
mortality at 10 µg/mL [7]: 70%
mortality at 100 µg/mL [4]: 85%
mortality at 10 µg/mL [5]: 20%
mortality at 100 µg/mL [8]: 100%
